# Structures can show the parent of a compound that is named as a salt. Where two headings read alike, the source gives them in different places.
# Key:
# [1] = system: Serratia marcescens SE3; experiment: standard agar dilution method, MIC; format: cell-based; conditions: read-out: Minimum Inhibitory Concentration
# From the text: (§1) In Table IX which follows, the MIC values against a spectrum of microorganisms obtained with the test compound are presented. The test method was the standard agar dilution method.
# [2] = system: Bordetella bronchiseptica 16; experiment: standard agar dilution method, MIC; format: cell-based; conditions: read-out: Minimum Inhibitory Concentration
# From the text: as §1
# [3] = system: Staphylococcus aureus 3074; experiment: standard agar dilution method, MIC; format: cell-based; conditions: read-out: Minimum Inhibitory Concentration
# From the text: as §1
# [4] = system: Aspergillus flavus E; experiment: standard agar dilution method, MIC; format: cell-based; conditions: read-out: Minimum Inhibitory Concentration
# From the text: as §1
# [5] = system: Erwinia amylovora; experiment: standard agar dilution method, MIC; format: cell-based; conditions: read-out: Minimum Inhibitory Concentration
# From the text: as §1
# [6] = system: Pseudomonas aeruginosa X239; experiment: standard agar dilution method, MIC; format: cell-based; conditions: read-out: Minimum Inhibitory Concentration
# From the text: as §1
# [7] = system: Citrobacter freundii; experiment: standard agar dilution method, MIC; format: cell-based; conditions: read-out: Minimum Inhibitory Concentration
# From the text: as §1
# [8] = system: Proteus morganii PR15; experiment: standard agar dilution method, MIC; format: cell-based; conditions: Morganella morganii, read-out: Minimum Inhibitory Concentration
# From the text: as §1
# [9] = system: Escherichia coli EC14; experiment: standard agar dilution method, MIC; format: cell-based; conditions: read-out: Minimum Inhibitory Concentration
# From the text: as §1
# [10] = system: Pseudomonas solanacearcum X185; experiment: standard agar dilution method, MIC; format: cell-based; conditions: read-out: Minimum Inhibitory Concentration
# From the text: as §1
# [11] = system: Staphylococcus aureus 3055; experiment: standard agar dilution method, MIC; format: cell-based; conditions: read-out: Minimum Inhibitory Concentration
# From the text: as §1
# [12] = system: Salmonella typhimurium; experiment: standard agar dilution method, MIC; format: cell-based; conditions: Salmonella enterica, read-out: Minimum Inhibitory Concentration
# From the text: as §1
# [13] = system: Klebsiella pneumoniae KL14; experiment: standard agar dilution method, MIC; format: cell-based; conditions: read-out: Minimum Inhibitory Concentration
# From the text: as §1
# [14] = system: Salmonella typhosa SA12; experiment: standard agar dilution method, MIC; format: cell-based; conditions: Salmonella enterica, read-out: Minimum Inhibitory Concentration
# From the text: as §1
# [15] = system: Streptococcus faecalis X66; experiment: standard agar dilution method, MIC; format: cell-based; conditions: Enterococcus faecalis, read-out: Minimum Inhibitory Concentration
# From the text: as §1
# [16] = system: Candida tropicalis A17; experiment: standard agar dilution method, MIC; format: cell-based; conditions: read-out: Minimum Inhibitory Concentration
# From the text: as §1
# [17] = system: Trichophyton mentagrophytes 27; experiment: standard agar dilution method, MIC; format: cell-based; conditions: read-out: Minimum Inhibitory Concentration
# From the text: as §1
# [18] = system: Enterobacter aerogenes EB17; experiment: standard agar dilution method, MIC; format: cell-based; conditions: Klebsiella aerogenes, read-out: Minimum Inhibitory Concentration
# From the text: as §1
# [19] = system: Ceratocystis ulmi; experiment: standard agar dilution method, MIC; format: cell-based; conditions: read-out: Minimum Inhibitory Concentration
# From the text: as §1
# [20] = Electrometric titration; format: physicochemical; conditions: 66% aqueous dmf, read-out: pKa
# [21] = system: Penicillin Resistant Staphylococcus; experiment: Gradient Plate technique, MIC; format: cell-based; conditions: read-out: Minimum Inhibitory Concentration
# From the text: The following Table II lists the minimum inhibitory concentration (MIC) for 7-[2-(2-thienyl)acetamido]-3-chloro-3-cephem-4-carboxylic acid against penicillin resistant Staphylococcus both in the presence of and absence of serum. The MIC values were obtained by the Gradient Plate technique carried out essentially as described by Bryson and Szybalski, Science, 116, 45 (1952). […]
# [22] = system: Klebsiella pneumoniae; experiment: Gradient Plate technique, MIC; format: cell-based; conditions: read-out: Minimum Inhibitory Concentration
# From the text: (§2) The following Table II lists the minimum inhibitory concentration (MIC) for 7-[2-(2-thienyl)acetamido]-3-chloro-3-cephem-4-carboxylic acid against penicillin resistant Staphylococcus both in the presence of and absence of serum. The MIC values were obtained by the Gradient Plate technique carried out essentially as described by Bryson and Szybalski, Science, 116, 45 (1952).
# (§3) In Table III, below, the MIC values for the test compound of Tables I and II against representative gram-negative organisms is presented. The data were obtained by the Gradient Plate technique.
# (§4) The minimum inhibitory concentrations for 7-[2-(2-thienyl)acetamido]-3-bromo-3-cephem-4-carboxylic acid against representative gram-negative bacteria is presented in Table VI. The data were obtained by the Gradient Plate Method.
# (§5) Tables VII and VIII list the minimum inhibitory concentrations of the test compound effective against representative penicillin resistant Staphylococcus strains, while […] the MIC values obtained against representative gram-negative microorganisms. The data were obtained by the Gradient Plate method.
# [23] = system: Escherichia coli; experiment: Gradient Plate technique, MIC; format: cell-based; conditions: read-out: Minimum Inhibitory Concentration
# From the text: as §2, §3, §4, §5
# [24] = system: Aerobacter aerogenes; experiment: Gradient Plate technique, MIC; format: cell-based; conditions: Klebsiella aerogenes, read-out: Minimum Inhibitory Concentration
# From the text: as §2, §3, §4, §5
# [25] = system: Shigella sp.; experiment: Gradient Plate technique, MIC; format: cell-based; conditions: read-out: Minimum Inhibitory Concentration
# From the text: as §2, §3, §4, §5
# [26] = system: Serratia marcescens; experiment: Gradient Plate technique, MIC; format: cell-based; conditions: read-out: Minimum Inhibitory Concentration
# From the text: as §2, §3, §4, §5
# [27] = system: Pseudomonas aeruginosa; experiment: Gradient Plate technique, MIC; format: cell-based; conditions: read-out: Minimum Inhibitory Concentration
# From the text: as §2, §3, §4, §5
# [28] = system: Salmonella heidelberg; experiment: Gradient Plate technique, MIC; format: cell-based; conditions: Salmonella enterica, read-out: Minimum Inhibitory Concentration
# From the text: as §2, §3, §4, §5
# [29] = system: Methicillin resistant Staphylococcus; experiment: Gradient Plate technique, MIC; format: cell-based; conditions: Clinical Isolate X400 (methicillin resistant)
smiles,measurement,setting,value
O=CO[C@@H](C(=O)NC1C(=O)N2C(C(=O)O)=C(Cl)CSC12)c1ccccc1 (stereo partly drawn) [7-[O-(Formyl)-D-mandelamido]-3-chloro-3-cephem-4-carboxylic acid],MIC,[1],> 128 µg/mL
same,MIC,[2],64 µg/mL
same,MIC,[3],1 µg/mL
same,MIC,[4],> 128 µg/mL
same,MIC,[5],> 128 µg/mL
same,MIC,[6],128 µg/mL
same,MIC,[7],> 128 µg/mL
same,MIC,[8],4 µg/mL
same,MIC,[9],8 µg/mL
same,MIC,[10],128 µg/mL
same,MIC,[11],> 0.25 µg/mL
same,MIC,[12],1 µg/mL
same,MIC,[13],4 µg/mL
same,MIC,[14],0.5 µg/mL
same,MIC,[15],64 µg/mL
same,MIC,[16],> 128 µg/mL
same,MIC,[17],> 128 µg/mL
same,MIC,[18],128 µg/mL
same,MIC,[19],> 128 µg/mL
same,pKa,[20]; only or first pKa,4.5
same,MIC,"[21]; Clinical Isolate V 32, No Serum",8 µg/mL
same,MIC,"[21]; Clinical Isolate V 32, Serum",> 20 µg/mL
same,MIC,"[21]; Clinical Isolate V 41, No Serum",5.8 µg/mL
same,MIC,"[21]; Clinical Isolate V 41, Serum",> 20 µg/mL
same,MIC,"[21]; Clinical Isolate V 84, No Serum",0.4 µg/mL
same,MIC,"[21]; Clinical Isolate V 84, Serum",1 µg/mL
same,MIC,"[21]; Clinical Isolate X 1.1, No Serum",< 0.1 µg/mL
same,MIC,"[21]; Clinical Isolate X 1.1, Serum",< 0.1 µg/mL
same,MIC,[22],1 µg/mL
same,MIC,[23],6.3 µg/mL
same,MIC,[24],0.7 µg/mL
same,MIC,[25],4 µg/mL
same,MIC,[26],160 µg/mL
same,MIC,[27],> 200 µg/mL
same,MIC,[28],0.6 µg/mL
same,Minimum Inhibitory Concentration,[29]; Serum,> 20 µg/mL
same,MIC,"[29]; Staphylococcus, No Serum, read-out: Minimum Inhibitory Concentration",> 20 µg/mL
"NC1C(=O)N2C(C(=O)OCc3ccc([N+](=O)[O-])cc3)=C(O)CS[C@H]12 (stereo partly drawn) [Example 5, p-Nitrobenzyl 7-amino-3-hydroxy-3-cephem-4-carboxylate hydrochloride]",pKa,"[20]; 66% DMF, second pKa",6.3
same,pKa,[20]; only or first pKa,4
